Patent publication US20040082503A1, “Methods for treatment of diabetes using peptide analogues of insulin” (Neurocrine Biosciences, Inc., priority 1998, published 2004)
Where “and” joins values, the source holds several entries; their conditions need not be identical. Equal values may be shown once.

Tests used:
[1] = system: Insulin B chain (9-23) specific murine T cell clone PD12-2.35; assay: Proliferation of insulin B chain (9-23) specific murine T cell clone PD12-2.35; type: cell-based, mouse (NOD); settings: clone PD12-2.35, 50 μM peptide, Exp. 1 and 2; for S.I. (Stimulation Index): cpm with peptide/cpm in medium alone
Experimental: (§1) Insulin specific NOD T cell lines were established by culturing lymphocytes isolated from islet-infiltrating populations by in vitro stimulation with either porcine insulin at 25 μg/ml and irradiated NOD islet cell in the presence of irradiated NOD spleen cells as antigen presenting cells and cytokines. To obtain the infiltrating lymphocytes the following procedures were performed (see Wegmann et al., Eur. J. Immunol. 24:1853, 1994): the pancreas from the NOD mouse was digested with collagenase and individual islets were isolated manually. The infiltrating lymphocytes were then obtained by mild trypsin digestion of the islets. The insulin specific T cell lines or clones were propagated by serial stimulation in the presence of NOD spleen cells, porcine insulin and lymphokines. Clones were obtained by limiting dilution of the B chain (9-23) specific T cell lines in the presence of the antigen presenting cells and porcine insulin at 25 μg/ml. Wells with a growing population of cells following limiting dilution were expanded in appropriate medium, and after one cycle of growth were tested for reactivity to the B chain (9-23) peptide of insulin by evaluating the proliferative response.
(§2) Insulin B chain (9-23) (SEQ ID NO:2) specific mouse (NOD) T cell clones were isolated from infiltrated islets as described in Example 2. Peptide analogues with single alanine substitutions were prepared as described in Example 1. The effect of each analogue on T cell proliferation was then evaluated using an assay performed in 96-well flat bottom microtiter plates (see Daniel et al., Eur. J. Immunol. 25:1056, 1995). Briefly 25,000 T cell clones along with 1 million irradiated NOD spleen cells were cultured in the presence of 50 μg/ml of insulin B chain 9-23 peptide or any of the alanine substituted peptides listed below in triplicate sets. The plates were incubated for a total of 72 hours in 7% carbon dioxide atmosphere with a pulse of 1 μCi/well of tritiated thymidine for the last 6-8 hours of culture. Cells were harvested on a glass fiber filter and the associated radioactivity was counted in a liquid scintillation counter. Results are expressed as mean counts per minute of triplicate wells.
NOD T cell clones were incubated in the presence of 50 μM of either the native B chain (9-23) peptide or NBI-6024. The data in Table 3 represent the mean of triplicate sample±standard error of the mean. Within Table 3, S.I. (Stimulation Index)=proliferation (cpm) in the presence of the peptide/proliferation (cpm) in medium alone.

DQ8 antigens = assay: Binding to DQ8 antigens
[2] = system: Soluble NBI-6024 induced T cells (IL-2, IL-4, IL-5 production); assay: Cytokine production by NBI-6024 induced T cells (ELISA); type: cell-based, NOD mouse; settings: for Cytokine IL-2: 48 h supernatant
Experimental: FIG. 18 is a histogram, showing a comparison of the cytokines produced by immune cells induced by A^16,19 (NBI-6024) peptide in the presence or absence of adjuvant. Groups of NOD mice were immunized with the NBI-6024 alone or emulsified with CFA. The cytokines IL-2 and IL-4, as indicated, were measured at 25 μM of NBI-6024 and expressed as pg/mL after subtracting the background values.
To determine the type of T cells produced following soluble administration of NBI-6024, the culture supernatants from immune lymphoid cells were removed 48 hours following the initiation of culture and the levels of various cytokines measured using standard ELISA technology. […] Within Table 8, values are expressed in pg/ml as mean of triplicates±SEM.

[3] = system: Insulin specific NOD T cell clone PD12-4.29; assay: Proliferation of insulin-specific NOD T cell clone PD12-4.29; type: cell-based, mouse (NOD); settings: 50 μg/ml peptide, 72 h, 3H-thymidine; no antigen 789 cpm
Experimental: as §1, §2

[4] = system: Insulin specific NOD T cell clone PD12-4.34; assay: Proliferation of insulin-specific NOD T cell clone PD12-4.34; type: cell-based, mouse (NOD); settings: 50 μg/ml peptide, 72 h, 3H-thymidine; no antigen 231 cpm
Experimental: as §1, §2

[5] = system: Insulin specific NOD T cell clone PD12-4.4; assay: Proliferation of insulin-specific NOD T cell clone PD12-4.4; type: cell-based, mouse (NOD); settings: 50 μg/ml peptide, 72 h, 3H-thymidine; no antigen 350 cpm
Experimental: as §1, §2

[6] = system: Insulin specific NOD T cell clone PD6-4.3; assay: Proliferation of insulin-specific NOD T cell clone PD6-4.3; type: cell-based, mouse (NOD); settings: 50 μg/ml peptide, 72 h, 3H-thymidine; no antigen 163 cpm
Experimental: as §1, §2

[7] = soluble NBI-6024 induced T cells cultured with NBI-6024 5 μM
[8] = soluble NBI-6024 induced T cells cultured with NBI-6024 25 μM
[9] = listed as Insulin B Chain (9-23)

Binding affinity to DQ8 antigens (DQ8 antigens) | Substance | Proliferative response, Mean cpm ± sem [1] | S.I. (Stimulation Index) [1] | Cytokine production profile ([2]; NBI-6024 emulsified with CFA (control)) | Cytokine production profile ([2]; T cells from mice immunized with soluble NBI-6024) | Cytokine IL-4 ([2]; soluble NBI-6024 induced T cells cultured with NBI-6024 1 μM, 0: 134 ± 0) [pg/mL] | Cytokine IL-5 ([2]; soluble NBI-6024 induced T cells cultured with NBI-6024 1 μM, 0: 1,814 ± 332) | Cytokine IL-2 ([2]; soluble NBI-6024 induced T cells cultured with NBI-6024 1 μM) [pg/mL] | Cytokine IL-4 [2, 7] | Cytokine IL-5 [2, 7] | Cytokine IL-2 [2, 7] [pg/mL] | Cytokine IL-4 [2, 8] | Cytokine IL-5 [2, 8] | Cytokine IL-2 [2, 8] [pg/mL] | Response (cpm) of T cell clone PD12-4.29 [3] [cpm] | Response (cpm) of T cell clone PD12-4.34 [4] [cpm] | Proliferative response, Mean cpm ± sem [1, 9] | S.I. (Stimulation Index) [1, 9] | Response (cpm) of T cell clone PD12-4.4 [5] [cpm] | Response (cpm) of T cell clone PD6-4.3 [6] [cpm]
binds with similar affinity | NBI-6024: insulin B chain 9-23 with alanine substitutions at positions 16 and 19 (SHLVEALALVAGERG) | 841 ± 88 cpm and 452 ± 179 cpm | 1.22 and 0.91 | did induce the expected Th1-cytokine profile (IL-2) | produced the Th2 cytokines, interleukin-4 (FIG. 18) and interleukin-5 (Table 8), and not the Th1-derived interleukin-2 | 684 ± 92 | 9,999 ± 503 pg/ml | <15 | 1,653 ± 51 pg/ml | 23,496 ± 684 pg/ml | <15 | 2,102 ± 85 pg/ml | 28,062 ± 141 pg/ml | <15 |  |  |  |  |  | 
 | Native 9-23: native peptide, residues 9-23 of human insulin B chain (SEQ ID NO:2) (SHLVEALYLVCGERG; Residues 9-23 of human insulin B chain; listed as Homo sapiens) [reference compound] |  |  |  |  |  |  |  |  |  |  |  |  |  | 14820 | 3614 | 120,886 ± 7,171 cpm and 100,521 ± 1,581 cpm | 175.7 and 203.89 | 10000 | 10463
